Source: patent US12538922B2, “Composition and methods for parasite control” (priority 2019, dated 2026)
Where a name gives a salt, the structure may show the parent alone. Read-outs that look alike come from different tables or passages of the source.

Key:
[1] = test system: adult Aedes aegypti mosquitoes; experiment: Mosquito repellency assay (landings and time on warm treated surface); format: in vivo; settings: for Mean probing time [%, compared to control]: 100% = same time as on vehicle-treated surface; for Repellency, % reduction in landings vs vehicle control: repellency as percentage reduction of control, 100% = no landings
Experimental: The compound of the invention is mixed with ethanol to make a composition that can be applied to a surface and allowed to dry. After the surface is treated with the compounds of the invention and dried, it is heated to human body temperature, and the number of landings and the total time spent by the mosquitoes on the warm surface by adult Aedes aegypti mosquitoes is recorded automatically by machine vision to measure repellency of each compound.
Repellency (based on the number of individual landings on the warm surface) is expressed as a percentage reduction of the control, where the average number of mosquitoes landing on a warm surface treated only with the vehicle solvent is counted. 100% means no mosquitoes landed on the warm surface.
For mosquitoes that still landed on the warm surface, the time spent on the warm surface is also recorded and expressed as a percentage of the control, corresponding to the average time that mosquitoes spent on the same warm surface when treated only with the vehicle solvent. 100% mean that the mosquitoes spent the same time on the treated warm surface as on a warm surface treated only with the vehicle solvent.
Each compound/dose is tested in triplicate using a surface of 18.9 cm2 and 100 microliters of solution without the compound (the placebo) or with the compound dilution spread on the surface, and allowed to dry before the test. The average and standard error on triplicates is calculated. The control (using only vehicle solvent) is run with ethanol. The same population of mosquitoes is exposed first to the warm surface treated with the vehicle solvent, then to the surface treated with the compound. The concentration of the solution comprising the test compound was adjusted to ensure the treatment dosage of the compound is according to the final concentration per surface units area in the table.

[2] = test system: R. sanguineus tick larvae; settings: for Repellence Median (Q1-Q3) [%] / Knockdown Median (Q1-Q3) [%]: pure compound; for Repellence Median (Q1-Q3) [%]: median of replicates; for Knockdown Median (Q1-Q3) [%]: motility reduction over 9 min
Experimental: FIG. 1 Schematic representation of the tick repellent test. 30-60 tick larvae are deposited in the non-treated area of a circular arena (8.96 cm^2) whereby one quadrant of the surface (2.25 cm^2) is treated. After 1 minute, the distribution of ticks in the treated and untreated areas is measured for a duration of 2 minutes. The repellent/deterrent effect is expressed in %: 100% means that ticks completely avoided the treated surface. Toxicity is measured in the same setup over a duration of 8 minutes and the mortality is expressed in % motility reduction between the beginning and the end of the 8 minutes. Dosages are expressed as a quantity (mg or molarity) per surface unit (m^2), as the compound or extract is deposited at the bottom of the well. Pure compounds: dose given in micromoles/m^2; Extracts: dose given in micrograms/m^2. Tests were run in triplicates.
The assay is used to evaluate the repellent/deterrent potential of a test compound or extract. The test includes a preliminary assessment of knockdown efficacy as a secondary endpoint. Knockdown can be defined as a state of intoxication and paralysis that usually precedes death (Wickham et al. (1974) Pesticide Science 5(5): 657-664). The test relies on the questing behavior of ticks that explore their habitat to find a suitable host hunting site and their propensity to avoid areas treated with repellent or irritating substances. Tick knockdown is expressed as a reduction in total motility over a defined period of time, and not by collecting and counting the number of dead and live ticks at the end of the exposure period.
Plant extracts or synthetic pure alkaloids diluted in methanol (extracts) or ethanol (alkaloids) were deposited on the bottom of wells in a six-well plate. Only one quadrant ([…]) of the bottom surface of each well was treated. The solvent was left to evaporate. The final concentration of the plant extracts was, therefore, expressed in mg/m^2, or in micromoles per square meter (μmol/m^2) for the synthetic alkaloids. Final concentrations applied for plant extracts were 893 (R. sanguineus adults only), 446, 141, 44.6, 14.1, and 4.46 mg/m^2, and 300, 100, 30, 10, and 3 μmol/m^2 for pure alkaloids. Approximately 50 R. sanguineus tick larvae, and exactly 5 R. sanguineus adults, or 5 I. ricinus nymphs were added to the untreated area of each well. Positive (DEET, commercial tick repellent) and negative (methanol or ethanol) controls were evaluated in parallel. Each concentration tested was run in three or more test replicates. After a 1-min incubation on a heating plate, the frequency of tick movement in the treated quadrant and in each of the untreated quadrants was recorded by machine vision. Tick movement on the untreated surface was computed as the median of movement on the three untreated quadrants. To estimate deterrence recordings were performed over a period of 2 min for R. sanguineus larvae, and for 3 minutes for R. sanguineus adults and I. ricinus nymphs, after the 1-min pre-exposure period. To assess knockdown effect, recording was extended to 9 min (starting at the 1-min pre-exposure period and lasting an additional 8 minutes).
Deterrence activity was calculated as follows: Percent deterrence=1−(movements on treated area/movements on untreated area)×100.
A difference of 50% between total movements recorded in the treated area versus movements recorded in the untreated area was considered significant.
The tick knockdown effect was calculated similarly: Percent knockdown=1−(movements at the end of the imaging period/movements at the beginning of the imaging period)×100.
A difference of 50% between total movements recorded during the 1 min pre-exposure and total movements measured at 9 min of recording was considered significant.

[3] = dose 380 μmol/m^2, listed as S enantiomer HCl salt, dihydrochloride

Q: How did the “Mean probing time [%, compared to control]” value [1, 3] turn out when `C1=CC[C@@H](c2cccnc2)NC1` [(S)-anatabine dihydrochloride] was run?
A: 71.5%

Q: What about the “Repellency, % reduction in landings vs vehicle control” value [1, 3] of the same molecule?
A: 25.4%

Q: What about the “Mean probing time [%, compared to control]” value ([1]; dose 760 μmol/m^2) of the same molecule?
A: 62.7%

Q: And the “Repellency, % reduction in landings vs vehicle control” value ([1]; dose 760 μmol/m^2)?
A: 28.2%

Q: And the “MEC (μmol/m^2)” value ([2]; Table 5, N = 3 subset of Table 4)?
A: 300 μmol/m^2

Q: And the “% repellency” value ([2]; Table 5, N = 3 subset of Table 4, dose 30)?
A: 12%

Q: And the “% repellency” value ([2]; Table 5, N = 3 subset of Table 4, dose 300)?
A: 78%

Q: What about the “Repellence Median (Q1-Q3) [%]” value ([2]; concentration 3 μmol/m^2) of the same molecule?
A: 38.4%

Q: What about the “Knockdown Median (Q1-Q3) [%]” value ([2]; concentration 3 μmol/m^2) of the same molecule?
A: 0%

Q: And the “Repellence Median (Q1-Q3) [%]” value ([2]; concentration 10 μmol/m^2, dihydrochloride)?
A: 38.1%

Q: And the “Repellence Median (Q1-Q3) [%]” value ([2]; concentration 10 μmol/m^2, listed as (S)-anatabine, dihydrochloride)?
A: 38%

Q: And the “Knockdown Median (Q1-Q3) [%]” value ([2]; concentration 10 μmol/m^2)?
A: 4.2%

Q: What about the “Repellence Median (Q1-Q3) [%]” value ([2]; concentration 30 μmol/m^2, dihydrochloride) of the same molecule?
A: 54.4%

Q: And the “Repellence Median (Q1-Q3) [%]” value ([2]; concentration 30 μmol/m^2, listed as (S)-anatabine, dihydrochloride)?
A: 54%

Q: And the “Knockdown Median (Q1-Q3) [%]” value ([2]; concentration 30 μmol/m^2)?
A: 14.7%

Q: What about the “Repellence Median (Q1-Q3) [%]” value ([2]; concentration 100 μmol/m^2, dihydrochloride) of the same molecule?
A: 86.2%

Q: What about the “Repellence Median (Q1-Q3) [%]” value ([2]; concentration 100 μmol/m^2, listed as (S)-anatabine, dihydrochloride) of the same molecule?
A: 86%

Q: What about the “Knockdown Median (Q1-Q3) [%]” value ([2]; concentration 100 μmol/m^2) of the same molecule?
A: 23.8%

Q: What about the “Repellence Median (Q1-Q3) [%]” value ([2]; concentration 300 μmol/m^2) of the same molecule?
A: 79.8%

Q: What about the “Knockdown Median (Q1-Q3) [%]” value ([2]; concentration 300 μmol/m^2) of the same molecule?
A: 14.2%

Q: What about the “Knockdown Minimum effective concentration” value ([2]; smallest concentration with median activity above 50% significance limit) of the same molecule?
A: >300 μmol/m^2

Q: And the “Repellence Minimum effective concentration” value ([2]; smallest concentration with median activity above 50% significance limit, dihydrochloride)?
A: 30 μmol/m^2
